Blank lines part the entries; values can stand above or below the compound they belong to.
Columns and labels:
Rattus norvegicus [1] = assay: Unbound biliary clearance in iv dosed rat; assay type: ADME, organism-based, Bile; details: in vivo
[2] = Drug excretion in iv dosed rat assessed as compound excreted into bile; assay type: ADME, organism-based; details: read-out: Drug excretion
Homo sapiens [3] = assay: Total biliary clearance in iv dosed human after 24 hrs by T-tube method; assay type: ADME, organism-based, Bile; details: in vivo
[4] = Drug excretion in iv dosed human assessed as compound excreted into bile after 24 hrs by T-tube method; assay type: ADME, organism-based; details: read-out: Drug excretion
Homo sapiens [5] = assay: Unbound biliary clearance in iv dosed human after 24 hrs by T-tube method; assay type: ADME, organism-based, Bile; details: in vivo
Rattus norvegicus [6] = assay: Total biliary clearance in iv dosed rat; assay type: ADME, organism-based, Bile; details: in vivo
Homo sapiens [7] = assay: Total biliary clearance in human at 20 mg, iv after 24 hrs by T-tube method; assay type: ADME, organism-based, Bile; details: in vivo
Rattus norvegicus [8] = assay: Total biliary clearance in Sprague-Dawley rat at 8 uCi, iv; assay type: ADME, organism-based, Bile; details: in vivo
Rattus norvegicus [9] = assay: Unbound biliary clearance in Sprague-Dawley rat at 8 uCi, iv; assay type: ADME, organism-based, Bile; details: in vivo
[10] = Drug excretion in human assessed as compound excreted into bile at 20 mg, iv after 24 hrs by T-tube method; assay type: ADME, organism-based; details: read-out: Drug excretion
Homo sapiens [11] = assay: Unbound biliary clearance in human at 20 mg, iv after 24 hrs by T-tube method; assay type: ADME, organism-based, Bile; details: in vivo
Canis familiaris [12] = assay: Total biliary clearance in iv dosed dog; assay type: ADME, organism-based, Canis lupus familiaris, Bile; details: in vivo
Canis familiaris [13] = assay: Unbound biliary clearance in iv dosed dog; assay type: ADME, organism-based, Canis lupus familiaris, Bile; details: in vivo
[14] = Drug excretion in human assessed as compound excreted into bile at 2 gm, iv after 24 hrs by T-tube method; assay type: ADME, organism-based; details: read-out: Drug excretion
[15] = Drug excretion in human assessed as compound excreted into bile at 50 mg, iv after 24 hrs by T-tube method; assay type: ADME, organism-based; details: read-out: Drug excretion
Rattus norvegicus [16] = assay: Total biliary clearance in Sprague-Dawley rat at 20 mg/kg, iv; assay type: ADME, organism-based, Bile; design: dose 20 mg/kg, route intravenous; details: in vivo
Homo sapiens [17] = assay: Unbound biliary clearance in human at 1 gm, iv after 24 hrs by T-tube method; assay type: ADME, organism-based, Bile; details: in vivo
Canis familiaris [18] = assay: Unbound biliary clearance in beagle dog at 20 mg/kg, iv; assay type: ADME, organism-based, Canis lupus familiaris, Bile; design: dose 20 mg/kg, route intravenous; details: in vivo
Homo sapiens [19] = assay: Total biliary clearance in human at 1 gm, iv after 24 hrs by T-tube method; assay type: ADME, organism-based, Bile; details: in vivo
[20] = Drug excretion in Sprague-Dawley rat assessed as compound excreted into bile at 20 mg/kg, iv; assay type: ADME, organism-based; design: dose 20 mg/kg, route intravenous; details: read-out: Drug excretion
Rattus norvegicus [21] = assay: Unbound biliary clearance in Sprague-Dawley rat at 20 mg/kg, iv; assay type: ADME, organism-based, Bile; design: dose 20 mg/kg, route intravenous; details: in vivo
[22] = Drug excretion in human assessed as compound excreted into bile at 1 gm, iv after 24 hrs by T-tube method; assay type: ADME, organism-based; details: read-out: Drug excretion
[23] = Drug excretion in beagle dog assessed as compound excreted into bile at 20 mg/kg, iv; assay type: ADME, organism-based, Canis lupus familiaris; design: dose 20 mg/kg, route intravenous; details: read-out: Drug excretion
Canis familiaris [24] = assay: Total biliary clearance in beagle dog at 20 mg/kg, iv; assay type: ADME, organism-based, Canis lupus familiaris, Bile; design: dose 20 mg/kg, route intravenous; details: in vivo
Homo sapiens [25] = assay: Unbound biliary clearance in iv dosed human after 72 hrs by T-tube method; assay type: ADME, organism-based, Bile; details: in vivo
[26] = Drug excretion in iv dosed Sprague-Dawley rat assessed as compound excreted into bile; assay type: ADME, organism-based; details: read-out: Drug excretion
Homo sapiens [27] = assay: Total biliary clearance in iv dosed human after 72 hrs by T-tube method; assay type: ADME, organism-based, Bile; details: in vivo
Rattus norvegicus [28] = assay: Total biliary clearance in iv dosed Sprague-Dawley rat; assay type: ADME, organism-based, Bile; details: in vivo
Rattus norvegicus [29] = assay: Unbound biliary clearance in iv dosed Sprague-Dawley rat; assay type: ADME, organism-based, Bile; details: in vivo
[30] = Drug excretion in iv dosed human assessed as compound excreted into bile after 72 hrs by T-tube method; assay type: ADME, organism-based; details: read-out: Drug excretion
[31] = Drug excretion in human assessed as compound excreted into bile at 60 mg, po after 12 hrs by fecal extraction method
[32] = Drug excretion in iv dosed Wistar rat assessed as compound excreted into bile; assay type: ADME, organism-based; details: read-out: Drug excretion
Homo sapiens [33] = assay: Total biliary clearance in iv dosed human after 8 hrs by T-tube method; assay type: ADME, organism-based, Bile; details: in vivo
Homo sapiens [34] = assay: Unbound biliary clearance in iv dosed human after 8 hrs by T-tube method; assay type: ADME, organism-based, Bile; details: in vivo
[35] = Drug excretion in iv dosed human assessed as compound excreted into bile after 8 hrs by T-tube method; assay type: ADME, organism-based; details: read-out: Drug excretion
Rattus norvegicus [36] = assay: Total biliary clearance in iv dosed Wistar rat; assay type: ADME, organism-based, Bile; details: in vivo
Rattus norvegicus [37] = assay: Unbound biliary clearance in iv dosed Wistar rat; assay type: ADME, organism-based, Bile; details: in vivo
[38] = Drug excretion in human assessed as compound excreted into bile at 200 mg, po after 24 hrs by T-tube method; assay type: ADME, organism-based; details: read-out: Drug excretion
Homo sapiens [39] = assay: Unbound biliary clearance in human at 200 mg, po after 24 hrs by T-tube method; assay type: ADME, organism-based, Bile; details: in vivo
Homo sapiens [40] = assay: Total biliary clearance in human at 200 mg, po after 24 hrs by T-tube method; assay type: ADME, organism-based, Bile; details: in vivo

SMILES: CC[C@H](C)C(=O)O[C@H]1C[C@H](O)C=C2C=C[C@H](C)[C@H](CC[C@@H](O)C[C@@H](O)CC(=O)O)[C@H]21 [PRAVASTATIN]
- CL free (Rattus norvegicus [1]): 4.714 L/h/kg
- dose excreted [2]: 40%
- CL (Homo sapiens [3]): 0.1863 L/h/kg
- dose excreted at 24 h [4]: 23%
- CL free (Homo sapiens [5]): 0.373 L/h/kg
- CL (Rattus norvegicus [6]): 1.65 L/h/kg

SMILES: CNC(=C[N+](=O)[O-])NCCSCc1ccc(CN(C)C)o1 [RANITIDINE]
- dose excreted [2]: 5%
- dose excreted at 24 h [15]: 1.5%

SMILES: CC[C@]1(O)C[C@H]2CN(CCc3c([nH]c4ccccc34)[C@@](C(=O)OC)(c3cc4c(cc3OC)N(C=O)[C@H]3[C@@](O)(C(=O)OC)[C@H](OC(C)=O)[C@]5(CC)C=CCN6CC[C@]43[C@@H]65)C2)C1 [VINCRISTINE]
- CL free (Homo sapiens [25]): 0.0314 L/h/kg
- dose excreted [26]: 43%
- CL (Homo sapiens [27]): 0.0125 L/h/kg
- CL (Rattus norvegicus [28]): 1.99 L/h/kg
- CL free (Rattus norvegicus [29]): 5.092 L/h/kg
- dose excreted at 72 h [30]: 10%

SMILES: CC(C)(C(=O)O)c1ccc(C(O)CCCN2CCC(C(O)(c3ccccc3)c3ccccc3)CC2)cc1 (configuration not stated) [FEXOFENADINE]
- dose excreted at 12 h [31]: 23%
- dose excreted [32]: 28%

SMILES: O=C([O-])Cc1ccccc1Nc1c(Cl)cccc1Cl.[Na+] [DICLOFENAC SODIUM]
- CL (Homo sapiens [33]): 0.00252 L/h/kg
- dose excreted [32]: 5%
- CL free (Homo sapiens [34]): 0.504 L/h/kg
- dose excreted at 8 h [35]: 1%
- CL (Rattus norvegicus [36]): 0.051 L/h/kg
- CL free (Rattus norvegicus [37]): 5.666 L/h/kg

Second part, the compound after the results:

- CL (Homo sapiens [7]): 0.0259 L/h/kg
- CL (Rattus norvegicus [8]): 0.75 L/h/kg
- CL free (Rattus norvegicus [9]): 22.73 L/h/kg
- dose excreted at 24 h [10]: 88%
- CL free (Homo sapiens [11]): 0.6465 L/h/kg
SMILES: CCCCC(=O)N(Cc1ccc(-c2ccccc2-c2nnn[nH]2)cc1)[C@H](C(=O)O)C(C)C

- CL free (Rattus norvegicus [1]): 0.7482 L/h/kg
- dose excreted [2]: 64%
- CL (Homo sapiens [3]): 0.00288 L/h/kg
- dose excreted at 24 h [4]: 10%
- CL free (Homo sapiens [5]): 0.06648 L/h/kg
- CL (Rattus norvegicus [6]): 0.576 L/h/kg
- CL (Canis familiaris [12]): 0.013 L/h/kg
- CL free (Canis familiaris [13]): 0.0206 L/h/kg
SMILES: CN(Cc1cnc2nc(N)nc(N)c2n1)c1ccc(C(=O)N[C@@H](CCC(=O)O)C(=O)O)cc1 [METHOTREXATE]

- dose excreted [2]: 86%
- dose excreted at 24 h [14]: 12%
SMILES: CCN1CCN(C(=O)N[C@@H](C(=O)N[C@@H]2C(=O)N3C(C(=O)O)=C(CSc4nnnn4C)CS[C@H]23)c2ccc(O)cc2)C(=O)C1=O [CEFOPERAZONE]

- CL (Rattus norvegicus [16]): 0.313 L/h/kg
- CL free (Homo sapiens [17]): 0.06 L/h/kg
- CL free (Canis familiaris [18]): 0.08394 L/h/kg
- CL (Homo sapiens [19]): 0.0024 L/h/kg
- dose excreted [20]: 58%
- CL free (Rattus norvegicus [21]): 0.58 L/h/kg
- dose excreted at 24 h [22]: 28%
- dose excreted [23]: 19%
- CL (Canis familiaris [24]): 0.0587 L/h/kg
SMILES: Cc1cc(O)c(C(=O)N[C@@H](C(=O)N[C@@H]2C(=O)N3C(C(=O)O)=C(CSc4nnnn4C)CS[C@H]23)c2ccc(O)cc2)cn1 [CEFPIRAMIDE]

- CL free (Rattus norvegicus [1]): 0.4286 L/h/kg
- dose excreted [2]: 41%
- CL (Rattus norvegicus [6]): 0.06 L/h/kg
- dose excreted at 24 h [38]: 11%
- CL free (Homo sapiens [39]): 0.0271 L/h/kg
- CL (Homo sapiens [40]): 0.0084 L/h/kg
SMILES: C=CC1=C(C(=O)O)N2C(=O)[C@@H](NC(=O)/C(=N\OCC(=O)O)c3csc(N)n3)[C@H]2SC1 [CEFIXIME]
